The values below come from patent EP1063290A1, “NOVEL DICARBONYLREDUCTASE AND GENE ENCODING THE SAME” (TAISHO PHARMACEUTICAL CO., LTD, priority 1998, dated 1999).

Read-outs that look alike come from different tables or passages of the source.

Assay [1] deals with T1, dicarbonyl reductase of the invention (Mus musculus, UniProt Q91X52).
T1 construct: made in house; host or cells: E. coli K12
Put plainly: Effects of metal ions and inhibitors on residual enzyme activity. The assay is classed as biochemical. As to conditions: after treating the enzyme with metals and inhibitors. Here is the method: However, since one of their substrates, NADPH, is degraded at below pH 5, activity assay is not possible in that range when NADPH is used and the peak cannot be determined. The examples were therefore carried out at near pH 7, although the optimum pH is not limited to near 7. • (7) pH stability: For example, DCR1 and hDCR1 are incubated for 3 hours at 25°C in buffer solutions with different pH values, and the residual activity is then measured and compared and recorded as relative activity with respect to the value at pH 8.0 with no incubation. • (8) Effects of metal ions and inhibitors: After treating the enzyme with different metals and inhibitors, the residual activity was evaluated.

For a further assay, the target named is protein DCR1 (Mus musculus, UniProt Q91X52). Put plainly: Dicarbonyl reductase activity assay: substrate specificity and rate constants (NAD(P)H oxidation at 340 nm). The settings on record: for substrate ranking (smallest Km values, higher catalyst efficiency Vmax/Km): mouse enzyme, Table 2, result in words. Here is the method:
(§1) The enzyme activity assay method is not particularly restricted, and it may be based on the activity assay method for mouse carbonyl reductase (CR) (Eur. J. Biochem. 22, 381-387(1995)). The enzyme used here was an expressed recombinant enzyme. • (a) Substrate specificity: In order to determine the substrate specificity, there may be used a hydrocarbon system including various ketone, aldehyde and ester groups, or an aromatic compound.
• (1) This was assayed under the following conditions. The reaction mixture (total: 2.0 ml) comprised an 80 mM potassium phosphate solution (pH 7.0 or 6.0), 0.1 mM NADPH or NADH and a carbonyl substrate or enzyme (50 µl) (10.1 µg or 3.7 µg of glomerin B). The oxidation rate for NAD(P)H was measured at 340 nm.

The next assay deals with protein hDCR1 (Homo sapiens, UniProt Q7Z4W1). In words: Dicarbonyl reductase activity assay: substrate specificity (NAD(P)H oxidation at 340 nm). The settings on record: against a reference of 100 for diacetyl. Here is the method: as §1
Chain of protein hDCR1 (Q7Z4W1 whole entry): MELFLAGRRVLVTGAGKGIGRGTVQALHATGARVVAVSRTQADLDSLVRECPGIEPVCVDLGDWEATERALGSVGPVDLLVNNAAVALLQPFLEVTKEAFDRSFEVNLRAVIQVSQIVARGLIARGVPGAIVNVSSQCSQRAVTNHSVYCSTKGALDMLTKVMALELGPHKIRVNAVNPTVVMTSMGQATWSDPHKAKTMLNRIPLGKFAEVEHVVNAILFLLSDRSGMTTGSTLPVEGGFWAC
The reaction mixture (total: 2.0 ml) comprised an 80 mM potassium phosphate solution (pH 7.0 or 6.0), 0.1 mM NADPH or NADH and a carbonyl substrate or enzyme (50 µl) (10.1 µg or 3.7 µg of hDCR1).
The oxidation rate for NAD(P)H was measured at 340 nm.
One unit of enzyme activity was defined as that which catalyzed oxidation of 1 µmol of NAD(P)H in one minute at 25°C.

Assay [2] deals with dicarbonyl reductase of the invention. Put plainly: Substrate reactivity features summarised from Tables 1, 2 and 3. The assay is classed as biochemical. The settings on record: summary in words of Tables 1, 2 and 3.
The target of assay [3] is T2, hamster liver diacetyl reductase (Hamster DR) (Mesocricetus auratus, UniProt Q91XV4).
T2 construct: from tissue; host or cells: hamster liver
T2 sequence (Q91XV4 whole entry): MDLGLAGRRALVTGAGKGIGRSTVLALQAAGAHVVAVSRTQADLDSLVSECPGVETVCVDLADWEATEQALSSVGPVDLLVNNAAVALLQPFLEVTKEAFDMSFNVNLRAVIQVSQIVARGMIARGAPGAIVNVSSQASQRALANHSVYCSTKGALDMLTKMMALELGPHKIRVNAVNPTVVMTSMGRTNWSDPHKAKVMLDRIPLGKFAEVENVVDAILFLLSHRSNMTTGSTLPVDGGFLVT
Put plainly: Inhibition of the enzyme reaction. The assay is classed as biochemical. As to conditions: for inhibition at 1000 µM / inhibition at 100 µM: read-out: Inhibition (%) Hamster DR. An excerpt:
(§2) Two enzymes were used here, mouse DCR1 and hamster liver diacetyl reductase (Hamster DR).

In a further assay the target is T3, mouse DCR1 (Mus musculus, UniProt Q91X52).
T3 construct: made in house; host or cells: E. coli K12
T3 sequence (Q91X52 whole entry): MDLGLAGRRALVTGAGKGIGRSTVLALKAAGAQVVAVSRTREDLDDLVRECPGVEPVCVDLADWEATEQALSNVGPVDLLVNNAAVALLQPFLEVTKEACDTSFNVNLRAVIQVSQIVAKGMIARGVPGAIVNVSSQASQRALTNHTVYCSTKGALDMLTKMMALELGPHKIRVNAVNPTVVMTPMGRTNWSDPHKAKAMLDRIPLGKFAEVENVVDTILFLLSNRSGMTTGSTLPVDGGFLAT
In words: Inhibition of the enzyme reaction. Format: biochemical.
From the text: as §2

The mark [4] stands for this setting: compound concentration 0.001 mM.
The mark [5] stands for this setting: compound concentration 0.1 mM, read-out: Inhibition (%) CDR1.
Setting [6] is: substrate concentration 1,000 μM, against a reference of 100 for diacetyl.
Where [7] appears, read: substrate concentration 1,000 μM.
Setting [8] is: compound concentration 1 mM, read-out: Inhibition (%) CDR1.

In general, inhibition refers to the change of the read-out against control, counted positive when it falls.

Chain of protein DCR1 (Q91X52 whole entry): as above
T1 sequence (Q91X52 whole entry): as above

In the case of `[Cl-].[Cl-].[Mg+2]` [MgCl2], the “effect on the enzyme (residual activity)” value in assay [1] is reported as “virtually no effect”.
In the case of `O=C1C(=O)c2cccc3cccc1c23` [Acenaphthenequinone], the “RA (%) relative activity” value at protein DCR1 (substrate concentration 25 μM, against a reference of 100 for diacetyl) was determined as 14.1%; on protein hDCR1 (substrate concentration 25 μM) it was 181%. In assay [2], the “reactivity (as substrate)” value is given as “strong reactivity”.
With `CCC1(CC)C(=O)NC(=O)NC1=O` [Barbital], the results for the inhibition at 1000 µM (in assay [3]; at mouse DCR1 (read-out: Inhibition (%) CDR1)) were 5% and 0%, respectively.
Take `Nc1ccccc1C(=O)O` [Anthranilic acid]: the inhibition at 100 µM in assay [3] came to 42%; at mouse DCR1 (read-out: Inhibition (%) CDR1) it was 0%.
On to `NC(=O)c1ccc(O)cc1` [4-Hydroxybenzamide], for which the values for the inhibition at 1000 µM (in assay [3]; at mouse DCR1 (read-out: Inhibition (%) CDR1)) were 19% and 44%, respectively.
Consider Cibacron blue dye, for which the “Inhibition (%) Hamster DR” value in assay [3] (setting [4]) was 18%. Further, the “Inhibition (%) CDR1” value on mouse DCR1 (setting [4]) amounted to 21%.
As to `C=C(CC)C(=O)c1ccc(OCC(=O)O)c(Cl)c1Cl` [Ethacrynic acid], the inhibition at 100 µM was found to be 3% in assay [3] (compound concentration 0.1 mM) and 0% at mouse DCR1 (setting [5]).
As for `[Ca+2].[Cl-].[Cl-]` [CaCl2], the “effect on the enzyme (residual activity)” value in assay [1] is given as “virtually no effect”.
For the compound `O=C1NC(=O)C(c2ccccc2)(c2ccccc2)N1` [Diphenlhydantoin], the inhibition at 100 µM in assay [3] came out at 2%; at mouse DCR1 (read-out: Inhibition (%) CDR1), 17%.
With `CCCCC(=O)C(C)=O` [2,3-Heptanedione], the “RA (%) relative activity” value at protein DCR1 (setting [6]) stood at 134%; on protein hDCR1 (setting [7]), 174%. The “reactivity (as substrate)” value in assay [2] was “strong reactivity”.
For `c1cnc2c(c1)ccc1cccnc12` [o-Phenanthroline], the inhibition at 1000 µM in assay [3] turned out to be 0%; on mouse DCR1 (read-out: Inhibition (%) CDR1) it was 8%.
As to `O=C(O)c1ccccc1` [Benzoic acid], the inhibition at 100 µM was determined as 59% in assay [3] and 32% on mouse DCR1 (read-out: Inhibition (%) CDR1).
Take `CC(=O)C(=O)c1ccccc1` [1-Phenyl-1,2-propanedione]: the “substrate ranking (smallest Km values, higher catalyst efficiency Vmax/Km)” value at protein DCR1 is listed as “best substrates”. Also, the “RA (%) relative activity” value at protein DCR1 (setting [6]) was found to be 148%; on protein hDCR1 (setting [7]), 65%. The “reactivity (as substrate)” value in assay [2] is “strong reactivity”.
Consider `CCC(=O)C(=O)CC` [3,4-Hexanedione], for which the “substrate ranking (smallest Km values, higher catalyst efficiency Vmax/Km)” value at protein DCR1 was “best substrates”. Further, the “RA (%) relative activity” value stood at 232% at protein DCR1 (setting [6]) and 170% at protein hDCR1 (setting [7]). For the same compound, in assay [2], the “reactivity (as substrate)” value was “strong reactivity”.
As for `CCCC(=O)C(C)=O` [2,3-Hexanedione], the “RA (%) relative activity” value at protein DCR1 (setting [6]) stood at 108%; on protein hDCR1 (setting [7]), 168%. In addition, the “reactivity (as substrate)” value in assay [2] was “strong reactivity”.
For `O=C(O)CC1(CC(=O)O)CCCC1` [Tetramethyleneglutaric acid], the inhibition at 100 µM in assay [3] came out at 63%; on mouse DCR1 (read-out: Inhibition (%) CDR1), 0%.
In the case of `O=C(CBr)C(=O)CBr` [1,4-dibromo-2,3-butanedione], the “RA (%) relative activity” value on protein hDCR1 (setting [7]) worked out at 133%. Further, in assay [2], the “reactivity (as substrate)” value is listed as “strong reactivity”.
Take `O=C1Nc2ccccc2C1=O` [Isatin]: the “RA (%) relative activity” value stood at 106.7% at protein DCR1 (substrate concentration 400 μM, against a reference of 100 for diacetyl) and 252% on protein hDCR1 (substrate concentration 500 μM). The “reactivity (as substrate)” value in assay [2] is reported as “strong reactivity”.
Regarding `O=C(O)c1ccncc1` [Isonicotinic acid], the inhibition at 100 µM came out at 4% in assay [3] (compound concentration 0.1 mM) and 0% on mouse DCR1 (setting [5]).
With `NC(=O)c1ccccc1` [Benzamide], the inhibition at 1000 µM in assay [3] (compound concentration 1 mM) is 43%; on mouse DCR1 (setting [8]), 18%.
As to `c1cn[nH]c1` [Pyrazole], the inhibition at 10000 µM was determined as 5% in assay [3] (compound concentration 10 mM) and 29% at mouse DCR1 (compound concentration 10 mM, read-out: Inhibition (%) CDR1).
Turning to `O=c1c(O)c(-c2ccc(O)c(O)c2)oc2cc(O)cc(O)c12` [Quercitin], the inhibition at 100 µM amounted to 33% in assay [3] (compound concentration 0.1 mM) and 50% at mouse DCR1 (setting [5]).
As to `CCC(=O)C(C)=O` [2,3-Pentanedione], the “RA (%) relative activity” value is on record as 163% on protein DCR1 and 167% at protein hDCR1 (setting [7]). Besides, the “reactivity (as substrate)” value in assay [2] is on record as “strong reactivity”.
For `CC(C)CN` [Isobutylamine], the inhibition at 1000 µM in assay [3] (compound concentration 1 mM) amounted to 50%; at mouse DCR1 (setting [8]), 16%.
